{"source": "ChEMBL document CHEMBL4651402", "about": "“Screening of ~5500 FDA-approved drugs and clinical candidates for anti-SARS-CoV-2 activity” (2021)", "tested_on": "SARS-CoV-2", "test": "microbe, parasite or virus in culture", "conditions": "Severe acute respiratory syndrome coronavirus 2, Vero C1008, 48 h", "data": [{"smiles": "COc1ccc([C@]2(C#N)CC[C@@H](C(=O)O)CC2)cc1OC1CCCC1", "note": "[CILOMILAST]", "values": [{"measurement": "IC50", "value": "> 20", "unit": "µM"}, {"measurement": "IC50", "setting": "read-out: pIC50 (converted)", "value": "> 20", "unit": "µM"}]}, {"smiles": "c1ccc(C2(c3ccccc3)OCC(C3CCCCN3)O2)cc1", "note": "(stereo unspecified) [DIOXADROL]", "values": [{"measurement": "IC50", "value": "> 20", "unit": "µM"}, {"measurement": "IC50", "setting": "read-out: pIC50 (converted)", "value": "> 20", "unit": "µM"}]}, {"smiles": "Nc1ccc(S(N)(=O)=O)cc1", "note": "[SULFANILAMIDE]", "values": [{"measurement": "IC50", "value": "> 20", "unit": "µM"}, {"measurement": "IC50", "setting": "read-out: pIC50 (converted)", "value": "> 20", "unit": "µM"}]}, {"smiles": "O=P1(N(CCCl)CCCl)NCCCO1", "note": "(stereo unspecified) [CYCLOPHOSPHAMIDE ANHYDROUS]", "values": [{"measurement": "IC50", "value": "> 20", "unit": "µM"}, {"measurement": "IC50", "setting": "read-out: pIC50 (converted)", "value": "> 20", "unit": "µM"}]}, {"smiles": "C=C(C)CC1(CC)C(=O)NC(=S)NC1=O", "values": [{"measurement": "IC50", "value": "> 20", "unit": "µM"}, {"measurement": "IC50", "setting": "read-out: pIC50 (converted)", "value": "> 20", "unit": "µM"}]}, {"smiles": "Cn1c(=O)[nH]c(=O)c2[nH]cnc21", "note": "[3-METHYLXANTHINE]", "values": [{"measurement": "IC50", "value": "> 20", "unit": "µM"}, {"measurement": "IC50", "setting": "read-out: pIC50 (converted)", "value": "> 20", "unit": "µM"}]}, {"smiles": "COc1cc(/C=C/c2ccc(O)cc2)cc(OC)c1", "note": "[PTEROSTILBENE]", "values": [{"measurement": "IC50", "value": "> 20", "unit": "µM"}, {"measurement": "IC50", "setting": "read-out: pIC50 (converted)", "value": "> 20", "unit": "µM"}]}, {"smiles": "C[C@@](Cc1ccc(O)c(O)c1)(NN)C(=O)O", "note": "[CARBIDOPA ANHYDROUS]", "values": [{"measurement": "IC50", "value": "> 20", "unit": "µM"}, {"measurement": "IC50", "setting": "read-out: pIC50 (converted)", "value": "> 20", "unit": "µM"}]}, {"smiles": "CCn1cc(C(=O)O)c(=O)c2ccc(-c3ccncc3)cc21", "note": "[ROSOXACIN]", "values": [{"measurement": "IC50", "value": "> 20", "unit": "µM"}, {"measurement": "IC50", "setting": "read-out: pIC50 (converted)", "value": "> 20", "unit": "µM"}]}, {"smiles": "C=CC(=O)Nc1cccc(Nc2nc(Nc3ccc(OCCOC)cc3)ncc2F)c1", "note": "[SPEBRUTINIB]", "values": [{"measurement": "IC50", "value": "> 20", "unit": "µM"}, {"measurement": "IC50", "setting": "read-out: pIC50 (converted)", "value": "> 20", "unit": "µM"}]}, {"smiles": "O=C(O)c1cc(=O)c2ccccc2o1", "note": "[CHROMOCARB]", "values": [{"measurement": "IC50", "value": "> 20", "unit": "µM"}, {"measurement": "IC50", "setting": "read-out: pIC50 (converted)", "value": "> 20", "unit": "µM"}]}, {"smiles": "CN[C@@H]1[C@@H](O)[C@@H](O[C@@H]2[C@@H](O)[C@H](O[C@H]3O[C@H]([C@@H](C)NC)CC[C@H]3N)[C@@H](N)C[C@H]2N)OC[C@]1(C)O", "note": "[GENTAMICIN C1]", "values": [{"measurement": "IC50", "value": "> 20", "unit": "µM"}, {"measurement": "IC50", "setting": "read-out: pIC50 (converted)", "value": "> 20", "unit": "µM"}]}, {"smiles": "C[C@@H]1C[C@H]2[C@@H]3CCC4=CC(=O)C=C[C@]4(C)[C@@]3(Cl)[C@@H](O)C[C@]2(C)[C@@]1(OC(=O)c1ccco1)C(=O)CCl", "note": "[MOMETASONE FUROATE]", "values": [{"measurement": "IC50", "value": "> 20", "unit": "µM"}, {"measurement": "IC50", "setting": "read-out: pIC50 (converted)", "value": "> 20", "unit": "µM"}]}, {"smiles": "Nc1nc(Cl)nc2c1ncn2[C@@H]1O[C@H](CO)[C@@H](O)[C@@H]1F", "note": "[CLOFARABINE]", "values": [{"measurement": "IC50", "value": "> 20", "unit": "µM"}, {"measurement": "IC50", "setting": "read-out: pIC50 (converted)", "value": "> 20", "unit": "µM"}]}, {"smiles": "Nc1ccccc1C(=O)CC(N)C(=O)O", "note": "(stereo unspecified) [KYNURENINE]", "values": [{"measurement": "IC50", "value": "> 20", "unit": "µM"}, {"measurement": "IC50", "setting": "read-out: pIC50 (converted)", "value": "> 20", "unit": "µM"}]}, {"smiles": "C/C(=C\\C(=O)OCCCCCCCCC(=O)O)C[C@@H]1OC[C@H](C[C@@H]2O[C@H]2[C@H](C)[C@H](C)O)[C@@H](O)[C@@H]1O", "values": [{"measurement": "IC50", "value": "> 20", "unit": "µM"}, {"measurement": "IC50", "setting": "read-out: pIC50 (converted)", "value": "> 20", "unit": "µM"}]}, {"smiles": "OC[C@H]1O[C@@H](Oc2ccc(O)cc2)[C@H](O)[C@@H](O)[C@@H]1O", "note": "[ARBUTIN]", "values": [{"measurement": "IC50", "value": "> 20", "unit": "µM"}, {"measurement": "IC50", "setting": "read-out: pIC50 (converted)", "value": "> 20", "unit": "µM"}]}, {"smiles": "Cc1nc2ccccn2c(=O)c1CCN1CCc2oc3ccccc3c2C1", "note": "[LUSAPERIDONE]", "values": [{"measurement": "IC50", "value": "> 20", "unit": "µM"}, {"measurement": "IC50", "setting": "read-out: pIC50 (converted)", "value": "> 20", "unit": "µM"}]}, {"smiles": "CC1=N[C@H](C(=O)O)[C@@H](O)CN1", "values": [{"measurement": "IC50", "value": "> 20", "unit": "µM"}, {"measurement": "IC50", "setting": "read-out: pIC50 (converted)", "value": "> 20", "unit": "µM"}]}, {"smiles": "COc1ccc(CC2c3cc(OC)c(OC)cc3CC[N+]2(C)CCC(=O)OCCCCCOC(=O)CC[N+]2(C)CCc3cc(OC)c(OC)cc3C2Cc2ccc(OC)c(OC)c2)cc1OC", "note": "(stereo unspecified)", "values": [{"measurement": "IC50", "value": "> 20", "unit": "µM"}, {"measurement": "IC50", "setting": "read-out: pIC50 (converted)", "value": "> 20", "unit": "µM"}]}, {"smiles": "NC[C@H]1O[C@H](O[C@H]2[C@H](O)[C@@H](O[C@H]3O[C@H](CO)[C@@H](O)[C@H](N)[C@H]3O)[C@H](N)C[C@@H]2N)[C@H](O)[C@@H](O)[C@@H]1O", "note": "[KANAMYCIN]", "values": [{"measurement": "IC50", "value": "> 20", "unit": "µM"}, {"measurement": "IC50", "setting": "read-out: pIC50 (converted)", "value": "> 20", "unit": "µM"}]}, {"smiles": "C[N+]1(C)CCCC1COC(=O)C(O)(c1ccccc1)c1ccccc1", "note": "(stereo unspecified) [POLDINE]", "values": [{"measurement": "IC50", "value": "> 20", "unit": "µM"}, {"measurement": "IC50", "setting": "read-out: pIC50 (converted)", "value": "> 20", "unit": "µM"}]}, {"smiles": "Cc1nccn1CC1CCc2c(c3ccccc3n2C)C1=O", "note": "(stereo unspecified) [ONDANSETRON]", "values": [{"measurement": "IC50", "value": "> 20", "unit": "µM"}, {"measurement": "IC50", "setting": "read-out: pIC50 (converted)", "value": "> 20", "unit": "µM"}]}, {"smiles": "O=C(O)CN1C(=O)c2cccc3cccc(c23)C1=O", "note": "[ALRESTATIN]", "values": [{"measurement": "IC50", "value": "> 20", "unit": "µM"}, {"measurement": "IC50", "setting": "read-out: pIC50 (converted)", "value": "> 20", "unit": "µM"}]}, {"smiles": "O=C(O)c1ccc(N[C@H]2OC[C@H](O)[C@@H](O)[C@H]2O)cc1", "values": [{"measurement": "IC50", "value": "> 20", "unit": "µM"}, {"measurement": "IC50", "setting": "read-out: pIC50 (converted)", "value": "> 20", "unit": "µM"}]}, {"smiles": "CCCCC[C@H](O)/C=C/[C@H]1[C@H](O)CC(=O)[C@@H]1C/C=C\\CCCC(=O)O", "note": "[DINOPROSTONE]", "values": [{"measurement": "IC50", "value": "> 20", "unit": "µM"}, {"measurement": "IC50", "setting": "read-out: pIC50 (converted)", "value": "> 20", "unit": "µM"}]}, {"smiles": "NC(=O)N=NC(N)=O", "values": [{"measurement": "IC50", "value": "> 20", "unit": "µM"}, {"measurement": "IC50", "setting": "read-out: pIC50 (converted)", "value": "> 20", "unit": "µM"}]}, {"smiles": "CN1C(C(=O)Nc2nccs2)=C(O)c2ccccc2S1(=O)=O", "note": "[SUDOXICAM]", "values": [{"measurement": "IC50", "value": "> 20", "unit": "µM"}, {"measurement": "IC50", "setting": "read-out: pIC50 (converted)", "value": "> 20", "unit": "µM"}]}, {"smiles": "CCCn1c(=O)c2[nH]c(C3CCCC3)nc2n(CCC)c1=O", "note": "[1,3-DIPROPYL-8-CYCLOPENTYLXANTHINE [DPCPX]]", "values": [{"measurement": "IC50", "value": "> 20", "unit": "µM"}, {"measurement": "IC50", "setting": "read-out: pIC50 (converted)", "value": "> 20", "unit": "µM"}]}, {"smiles": "COc1c(OC)c(OC(C)=O)c2cc(Cl)ccc2c1OC(C)=O", "note": "[LONAPALENE]", "values": [{"measurement": "IC50", "value": "> 20", "unit": "µM"}, {"measurement": "IC50", "setting": "read-out: pIC50 (converted)", "value": "> 20", "unit": "µM"}]}, {"smiles": "N/C=C1\\Cc2ccccc2C1=O", "values": [{"measurement": "IC50", "value": "> 20", "unit": "µM"}, {"measurement": "IC50", "setting": "read-out: pIC50 (converted)", "value": "> 20", "unit": "µM"}]}, {"smiles": "N#Cc1c[nH]cc1-c1cccc2c1OC(F)(F)O2", "note": "[FLUDIOXONIL]", "values": [{"measurement": "IC50", "value": "> 20", "unit": "µM"}, {"measurement": "IC50", "setting": "read-out: pIC50 (converted)", "value": "> 20", "unit": "µM"}]}, {"smiles": "C=CCn1c(=O)n(C2OC(CO)C(O)C2O)c2nc(N)[nH]c(=O)c21", "note": "(stereo unspecified)", "values": [{"measurement": "IC50", "value": "> 20", "unit": "µM"}, {"measurement": "IC50", "setting": "read-out: pIC50 (converted)", "value": "> 20", "unit": "µM"}]}, {"smiles": "C[C@H]1CCC[C@H](O)CCCCCc2cc(O)cc(O)c2C(=O)O1", "note": "[ZERANOL]", "values": [{"measurement": "IC50", "value": "> 20", "unit": "µM"}, {"measurement": "IC50", "setting": "read-out: pIC50 (converted)", "value": "> 20", "unit": "µM"}]}, {"smiles": "NNCc1ccccc1", "note": "[BENZYLHYDRAZINE]", "values": [{"measurement": "IC50", "value": "> 20", "unit": "µM"}, {"measurement": "IC50", "setting": "read-out: pIC50 (converted)", "value": "> 20", "unit": "µM"}]}, {"smiles": "CC(CCC(=O)O)C1CCC2C3C[C@H](O)[C@@H]4C[C@H](O)CC[C@]4(C)C3CC[C@]12C", "note": "(stereo partly specified)", "values": [{"measurement": "IC50", "value": "> 20", "unit": "µM"}, {"measurement": "IC50", "setting": "read-out: pIC50 (converted)", "value": "> 20", "unit": "µM"}]}, {"smiles": "CC(C)OC(=O)OCOP(=O)(CO[C@H](C)Cn1cnc2c(N)ncnc21)OCOC(=O)OC(C)C", "note": "[TENOFOVIR DISOPROXIL]", "values": [{"measurement": "IC50", "value": "> 20", "unit": "µM"}, {"measurement": "IC50", "setting": "read-out: pIC50 (converted)", "value": "> 20", "unit": "µM"}]}, {"smiles": "O=C1CC[C@H](N2Cc3c(OCc4ccc(CN5CCOCC5)cc4)cccc3C2=O)C(=O)N1", "note": "[IBERDOMIDE]", "values": [{"measurement": "IC50", "value": "> 20", "unit": "µM"}, {"measurement": "IC50", "setting": "read-out: pIC50 (converted)", "value": "> 20", "unit": "µM"}]}]}
